{"source": "patent US12599137B2", "about": "“Composition for the drying of Tillandsia sp” (priority 2021, dated 2026)", "tested_on": "Tillandsia sp", "experiment": "Sampler of 49 cells, each with one specimen of each Tillandsia species, photographic follow-up every 5 days for 30 days", "type": "in vivo, Tillandsia aeranthos and Tillandsia recurvata", "from_the_text": "Next, we proceeded to form a sampler consisting of a base on which a series of wooden slats separated at parallel intervals were placed, to which perpendicular slats were crossed, achieving a plurality of cells for a total of 49 flat cells. One specimen of Tillandsia aeranthos and one of Tillandsia recurvata were placed inside each cell. Each box was designated with a sequential number from No. 1 to No. 49 and a photographic follow-up was taken every 5 days for a total of 30 days."}
{"smiles": "O=C([O-])O.[Na+]", "note": "[sodium bicarbonate]", "values": [{"measurement": "optimum concentration of the active ingredient in water", "setting": "from Examples 3 to 7, FIG. 1", "result": 0.07, "unit": "g/mL"}]}
{"smiles": "Cc1c(C(=O)O)c(O)cc2c1C(=O)c1c(O)c([C@@H]3O[C@H](CO)[C@@H](O)[C@H](O)[C@H]3O)c(O)c(O)c1C2=O", "note": "[carminic acid]", "values": [{"measurement": "dehydration result of Tillandsia sp, summary in words", "setting": "conclusions on sampler box tests", "result": "does not dehydrate"}]}
